Patent US20060229255A1, “Identification of n-alkylglycine trimers for induction of apoptosis” (priority 2003, published 2006)

What was measured:
Bax = assay: Western blot of Bax; format: cell-based, human; details: HT29 cells
Method: Western blotting. Floating and adherent cells were harvested and pellets were resuspended in RIPA buffer (50 mM Tris/HCl 7.4, 250 mM NaCl, 0,5% Igepal CA630, 5 mM EDTA, 1 mM PMSF, 10 μg/ml leupeptin, 50 mM NaF, 0.1 mM Na3VO4) or Deoxycholate buffer (10 mM phosphate buffer 7.4, […] NaCl, 0.5% Deoxycholate, 1% Igepal, 0.1% SDS, 1 mM PMSF). Protein concentration was determined with BCA Protein Assay Kit (Pierce) for RIPA extracts or Bradford assay (BioRad) for Deoxycholate extracts. Total protein (20-30 μg/lane) were separated by SDS-PAGE, transferred to PVDF membranes (Gellman), and probed with antibodies against Bcl-xL (Transduction); Bax (Santa Cruz); JNK (Santa Cruz); phospho-JNK (Cell Signaling); pRb (Pharmingen); pRb-phospho Ser780 (Cell Signalling); p130 (Santa Cruz); p107 (Santa Cruz); Cdk2 (Santa Cruz); p27^Kip1 (Santa Cruz); p21^Cip1 (Santa Cruz); actin (Sigma); or tubulin (ICN) and developed with ECL system (AmershamPharmacia biotech)
FIG. 6. (A) JNK is activated after N13-13-10C treatment. HT29 cells were treated for 1, 3, 6 and 24 h with N13-13-10C (35 μM), harvested and immunoblotted to assess activation of SAP/JNK MAP kinase. Western blot was first probed with the JNK-phosphor specific antibody, was stripped and reprobed with the pan-JNK antibody and actin to normalize total protein level. […]

HT29 cells = assay: Annexin V-FITC detection assay; format: cell-based, human; details: HT29, 35 μM, 40 h treatment
Method: Annexin V assay. Treated cells were harvested with EDTA 0.02% in Hank's Balanced Salt Solution (HBSS), washed in HBSS then in PBS (phosphate buffered saline) containing 1% BSA (Bovine serum albumine) and finally resuspended in Annexin V incubation buffer (10 mM HEPES 7.4; 140 mM NaCl; 2.5 mM CaCl2) containing 1% BSA. 10^5 cells were incubated with 5 μl Annexin-V-FITC (Bender MedSystems) for 1 h at room temperature and in the dark. Dead cells were stained with Propidium Iodide (PI) at 2 μg/ml. The analysis was immediately performed by flow cytometry.
FIG. 5. Detection of early apoptosis. Annexin V assay after 40 h of treatment with DMSO (right panel), N13-13-10C, 35 µM (central panel), or Taxol, 11 nM (left panel). HT29 treated cells were stained with Annexin V-FITC and PI and subjected to flow cytometry. Fluorescence dot blots of annexin V positive (vertical axis) and PI positive (horizontal axis, logarithmic values) cells are shown. Cell distribution expressed as percentage of the population is indicated: early apoptotic cells in quadrant 1, Q1 (AnV+/IP−); dead cells in Q2 (AnV+/IP+); living cells in Q3 (AnV−/IP−); necrotic cells in Q4 (AnV−/IP+).

| Compound | Bax level (Bax) | Early apoptotic cells (IP negative, Annexin V positive) (HT29 cells) [%] | Increase of early apoptotic cells with respect to control cells (HT29 cells) [fold] |
| --- | --- | --- | --- |
| COc1ccc(CCN(CC(=O)N(CCc2ccccc2)CC(N)=O)C(=O)CNCCc2ccccc2)cc1 [N10-13-10C] | not increased |  |  |
| COc1ccc(CCNCC(=O)N(CCc2ccc(OC)cc2)CC(=O)N(CCc2ccccc2)CC(N)=O)cc1 [N13-13-10C] |  | 14 | 3.5 |
